# Tests used:
# murine splenocytes = test: Cytokine production by unfractionated spleen cells (ELISA); assay type: cell-based, mouse (Balb/c); conditions: 10 µg/ml, 18 h, 10×10^6 cells/ml, ELISA of supernatants, data not shown
# Method: (§1) Unfractionated spleen cells (10×10^6/ml), recovered from Balb/c mice, were cultured in the presence or absence of mAb HuA and mAb MoA CDR peptides, LPS or NC (all 10 µg/ml) for 18 h in RPMI-1640 plus 10% FCS (complete medium) at 37°C and 5% CO2. After incubation, the supernatants were collected and tested for TNF-α and IL-6 levels by specific ELISA assays (Biosource, Camarillo, CA, USA). In selected experiments, PM (5×10^6/ml) were cultured as above described. After incubation, the supernatants were collected and tested for TNF-α and IL-6 levels by specific ELISA assays (Biosource). PM (5×10^6/ml) were cultured in the presence or absence of mouse VHCDR3, LPS, NC or SP (all at 10 µg/ml) for 1 or 18 h in complete medium at 37°C and 5% CO2. PM (5×10^6/ml) were cultured as above described in the presence or absence of wortmannin (4 nM) or SB203580 (0,2 µM) (both from Sigma). After incubation, the supernatants were collected and tested for TNF-α level by specific ELISA assays (Biosource). In selected experiments, PM (5×10^6/ml) were cultured in the presence or absence of VHCDR3, LPS, NC, SP and nine VHCDR3 alanine-substituted derivatives (all at 10 µg/ml) for 18 h in complete medium at 37°C and 5% CO2. After incubation, the supernatants were collected and tested for TNF-α level by specific ELISA assays (Biosource). PMN (5×10^6/ml) were cultured in the presence or absence of mAb MoA CDR peptides, LPS or NC (all 10 µg/ml) for 18 h in complete medium at 37°C and 5% CO2. After incubation, the supernatants were collected and tested for TNF-α and IL-6 levels by specific ELISA assays (Biosource). Cytokine titers were calculated by reference to standard curves, constructed with known amounts of recombinant cytokines.
# TLR-4 = TLR-4 expression in PM (flow cytometry); assay type: cell-based, mouse (Balb/c); conditions: PM 1×10^6/ml, 10 µg/ml, 1 h, RPE-labelled mAb to TLR-4, FACScan, representative experiment out of five
# From the text: Data are reported as percentage of positive cells. […] Data are expressed as percentage of positive cells.
# [1] = tested on: peritoneal murine macrophages (PM); test: Cytokine production by peritoneal macrophages (ELISA); assay type: cell-based, mouse (Balb/c); conditions: for IL-6 production by PM: n = 7; for reduction of TNF-α production induced by LPS / reduction of TNF-α production induced by VHCDR3: PM 5×10^6/ml, wortmannin 4 nM or SB203580 0,2 µM; for reduction of TNF-α production induced by LPS: LPS 10 µg/ml; for reduction of TNF-α production induced by VHCDR3: VHCDR3 10 µg/ml
# Method: DC and CD4^+ T cells were separated from spleens of inbred Balb/c mice using N-418 or L3T4 mAb-conjugated MicroBeads (Miltenyi Biotec, Bergisch Gladbach, Germany), and magnetic separation was performed according to the manufacturer's instruction. Peritoneal murine neutrophils (PMN) and macrophages (PM) were collected 18 h or 4 days, respectively, after the intraperitoneal injection of 1 ml endotoxin-free 10% thioglycolate solution (Difco).
# as §1
# TNF-α gene = TNF-α gene expression in PM (quantitative RT-PCR); assay type: cell-based, mouse (Balb/c); conditions: PM 1×10^6/ml, 10 µg/ml, 1 and 6 h, qPCR normalized against GADPH, n = 5
# Method: (§2) After incubation, cells were lysed using Trizol reagent (Invitrogen, Carlsbad, CA), and total RNA was extracted. The reverse transcriptase (RT) reaction was performed using Moloney murine leukaemia virus reverse transcriptase (M-MLV RT), as described in the manufacturer's instructions (Invitrogen).
# (§3) TNF-α, TLR-4, and GADPH clones for use as standards were prepared by PCR from cDNA derived from PM and cloned into p-Drive vector (Qiagen, S.p.A., Milano, Italy). These were verified by sequence analysis. Plasmid DNA was diluted 10-fold and the starting concentration for the dilution series was 10^8 gene copies/µl.
# (§4) For each target gene, primers were selected using the Beacon Designer software (Bio-Rad, Hercules, CA). Real-time RT-PCR (quantitative RT-PCR) was performed in 96-well PCR plates using the SYBR green (all from BioRad). For real-time PCR reaction 100 ng/µl of reverse-transcribed RNA was used and cDNA was normalized according to GADPH as an internal NC gene. Amplification conditions were the same for TNF-α, TLR-4 and GADPH mRNAs assayed: 3 min at 95°C, 40 cycles of 10 s at 95°C and 30 s at 62°C. For the Melt Curve, the amplification condition was: 1 min at 50°C and 90 cycles of 10 s at 50°C. The experiments were performed using the iCycler IQ Multicolor Real-time PCR Detection System (BioRad).
# TLR-4 gene = TLR-4 gene expression in PM (quantitative RT-PCR); assay type: cell-based, mouse (Balb/c); conditions: PM 1×10^6/ml, 10 µg/ml, 1 h, qPCR normalized against GADPH, n = 5
# Method: as §2, §3, §4
# [2] = tested on: C. albicans strain (CA-6); conditions: previously proven; ref [8], [16]; cited from earlier work
# From the text: The CDRs of human mAb HuA (IgM) and mouse mAb MoA (IgM) specific for the difucosyl human blood group A substance, were chemically synthesized on the basis of the previously described sequences of VH and VL chain [21]. An irrelevant synthetic decapeptide (MSTAVSKCAT), previously proven to be devoid of either candidacidal or immunomodulatory activity, was used as a negative control (NC), [16]. In selected experiments, a scramble peptide (SP) (YYWLQGGFAN) and nine VHCDR3 alanine-substituted derivatives were used for control of specificity and evalua ...
# IkBα = test: Phospho-IkBα Western blotting in PM; assay type: cell-based, mouse (Balb/c); conditions: PM, wortmannin 4 nM with VHCDR3 10 µg/ml, 1 h, n = 5
# Method: After incubation, cells were washed and lysated with Mammalian protein extraction reagent (M-PER) in the presence of protease and phosphatase inhibitors (all from Pierce, Rockford, IL). Protein concentration was determined with a BCA protein Assay Reagent kit (Pierce). The lysates (30 µg of each sample) were separated by sodium dodecyl-sulfate-10% PAGE, transferred to a nitrocellulose membrane (Pierce) for 1 h at 100 V in a blotting system (Bio-Rad) for Western Blot analysis, and the membranes were incubated over-night with rabbit polyclonal Abs to phospho-Akt (pAkt; dilution 1/1000), phospho-IkBα (pIkBα; dilution 1/1000) (all from Cell Signalling Technology, Beverly, MA) and rabbit polyclonal Ab to TLR-4 (dilution 1/200) (Santa Cruz Biotechnology Inc.) in blocking buffer. […] Immunoreactive bands were visualized and quantified by Chemidoc Instrument (Bio-Rad). In particular, a quantitative analysis of the region of interest drawn around the outer edge of the band, was performed based on the guidelines for the use of the Chemidoc Instrument (Bio-Rad). […] All the parallelograms that form a band create one unique three-dimensional solid structure on which the volume is calculated. […]
# [3] = 10 µg/ml, 18 h, 5×10^6 cells/ml, P<0.05 vs untreated
Compound,IL-6 production by splenocytes (murine splenocytes),"IL-6 production by PM [1, 3]",reduction of TNF-α production induced by LPS [1],reduction of TNF-α production induced by VHCDR3 [1],further results
"MSTAVSKCAT [NC, irrelevant synthetic decapeptide used as a negative control, reference compound]",did not affect cytokine production,did not stimulate cytokine production,–,–,"TNF-α production by splenocytes (murine splenocytes): did not affect cytokine production; Percentage of TLR-4 positive cells (TLR-4): 24.1; TNF-α production by PM [1, 3]: did not stimulate cytokine production; TNF-α gene expression, 1 and 6 h (TNF-α gene): inability; TLR-4 gene expression, 1 h (TLR-4 gene): No activation; candidacidal or immunomodulatory activity [2]: devoid"
C[S+]([O-])c1ccc(-c2nc(-c3ccncc3)c(-c3ccc(F)cc3)[nH]2)cc1 (stereo not drawn) [SB203580],–,–,28%,21%,–
COC[C@H]1OC(=O)c2coc3c2[C@@]1(C)C1=C(C3=O)[C@@H]2CCC(=O)[C@@]2(C)C[C@H]1OC(C)=O [wortmannin],–,–,39%,28%,effect on VHCDR3-induced IkBα phosphorylation (IkBα): significantly reduced
"QQRSNWPRS [mAb HuA VLCDR3, synthetic VLCDR3 of human mAb HuA]",significant up-regulation,significant up-regulation,–,–,–
